Experimental data taken from ChEMBL document CHEMBL1201862, “PubChem BioAssay data set” (2004).
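Compound exposure: 48 hours, 5 concentrations, 96-well plates. Abbreviation: GI50, concentration required for 50% inhibition of growth.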 Calls of active or inactive are those of the source. Rule as the data show it: active = GI50 up to about 1.1 µM and inactive = higher.

What was measured:
Assay in all cases: inhibition of tumour cell growth, NCI panel, 48 h
786-0 = tested on: 786-0
A498 = tested on: A498
ACHN = tested on: ACHN
CCRF-CEM = tested on: CCRF-CEM
DU-145 = tested on: DU-145
EKVX = tested on: EKVX
HOP-92 = tested on: HOP-92
HT-29 = tested on: HT-29
Hs-578T = tested on: Hs-578T
KM12 = tested on: KM12
NCI-H226 = tested on: NCI-H226
NCI-H522 = tested on: NCI-H522
SK-MEL-28 = tested on: SK-MEL-28
SK-OV-3 = tested on: SK-OV-3
SNB-19 = tested on: SNB-19
SR = tested on: SR
U-251 = tested on: U-251
UACC-257 = tested on: UACC-257
UACC-62 = tested on: UACC-62

SMILES	GI50 (786-0)	GI50 (A498)	GI50 (ACHN)	GI50 (CCRF-CEM)	GI50 (DU-145)	GI50 (EKVX)	GI50 (HOP-92)	GI50 (HT-29)	GI50 (Hs-578T)	GI50 (KM12)	GI50 (NCI-H226)	GI50 (NCI-H522)	GI50 (SK-MEL-28)	GI50 (SK-OV-3)	GI50 (SNB-19)	GI50 (SR)	GI50 (U-251)	GI50 (UACC-257)	GI50 (UACC-62)
O=C1C=C(N2CCN(c3ncccn3)CC2)C(=O)c2c(O)ccc(O)c21	53 µM (inactive)	> 100 µM (inactive)	> 100 µM (inactive)	> 100 µM (inactive)	> 100 µM (inactive)	> 100 µM (inactive)	> 100 µM (inactive)	> 100 µM (inactive)	27.6 µM (inactive)	> 100 µM (inactive)	> 100 µM (inactive)	> 100 µM (inactive)	> 100 µM (inactive)	> 100 µM (inactive)	> 100 µM (inactive)	> 100 µM (inactive)	> 100 µM (inactive)	> 100 µM (inactive)	16.2 µM (inactive)
CCN1CCC(O)(/C=C/c2cccc(C)c2)C(C(=O)/C=C/c2cccc(C)c2)C1 (stereo unspecified)	2.26 µM (inactive)	2.03 µM (inactive)	1.59 µM (inactive)	1.57 µM (inactive)	3.94 µM (inactive)	2.04 µM (inactive)	2.17 µM (inactive)	1.52 µM (inactive)	2.33 µM (inactive)	1.56 µM (inactive)	2.42 µM (inactive)	2.21 µM (inactive)	2.19 µM (inactive)	3.35 µM (inactive)	4.31 µM (inactive)	3.74 µM (inactive)	1.72 µM (inactive)	2.53 µM (inactive)	1.82 µM (inactive)
Cc1nc(-n2nc(-c3ccccc3)cc2-c2ccccc2)sc1C(/C=C\c1ccc([N+](=O)[O-])cc1)=N/NC(=S)NN	22.9 µM (inactive)	> 100 µM (inactive)	40.3 µM (inactive)	> 50.8 µM (inactive)	31 µM (inactive)	> 56.6 µM (inactive)	> 100 µM (inactive)	30.6 µM (inactive)	25 µM (inactive)	43.7 µM (inactive)	> 46.8 µM (inactive)	18.2 µM (inactive)	45.2 µM (inactive)	> 85.7 µM (inactive)	> 49.3 µM (inactive)	0.0948 µM (active)	> 74.3 µM (inactive)	> 42.1 µM (inactive)	39.1 µM (inactive)
O=C1c2ccccc2CC12Cc1ccccc1C2	36 µM (inactive)	> 100 µM (inactive)	63.1 µM (inactive)	48.3 µM (inactive)	86.3 µM (inactive)	20.7 µM (inactive)	31.4 µM (inactive)	23.4 µM (inactive)	52.2 µM (inactive)	44.9 µM (inactive)	> 100 µM (inactive)	36.6 µM (inactive)	> 100 µM (inactive)	> 100 µM (inactive)	> 100 µM (inactive)	6.12 µM (inactive)	60.7 µM (inactive)	18.9 µM (inactive)	> 100 µM (inactive)
COc1cc(/C=C/C(=O)c2c([O-])on[n+]2-c2ccccc2)ccc1O	2 µM (inactive)	7.46 µM (inactive)	2.32 µM (inactive)	1.37 µM (inactive)	2.34 µM (inactive)	3.72 µM (inactive)	2.4 µM (inactive)	2.37 µM (inactive)	2.43 µM (inactive)	2.31 µM (inactive)	5.53 µM (inactive)	1.73 µM (inactive)	2.62 µM (inactive)	3.73 µM (inactive)	4.82 µM (inactive)	1.53 µM (inactive)	3.1 µM (inactive)	3.87 µM (inactive)	3.44 µM (inactive)
NCCc1c[nH]c2ccc(OC(=O)C(=O)O)cc12	> 100 µM (inactive)	> 100 µM (inactive)	> 100 µM (inactive)	> 100 µM (inactive)	> 100 µM (inactive)	> 100 µM (inactive)	> 100 µM (inactive)	> 100 µM (inactive)	> 100 µM (inactive)	> 100 µM (inactive)	> 100 µM (inactive)	> 100 µM (inactive)	> 100 µM (inactive)	> 100 µM (inactive)	> 100 µM (inactive)	> 100 µM (inactive)	> 100 µM (inactive)	> 100 µM (inactive)	> 100 µM (inactive)
CC1C(c2ccc3c(c2)OCO3)c2cc3c(cc2OC1N1CCOCC1)OCO3 (stereo unspecified)	31.6 µM (inactive)	22.4 µM (inactive)	32.6 µM (inactive)	19 µM (inactive)	27.8 µM (inactive)	37.3 µM (inactive)	16.5 µM (inactive)	28.7 µM (inactive)	14.1 µM (inactive)	20.5 µM (inactive)	22 µM (inactive)	9.04 µM (inactive)	23.7 µM (inactive)	49.9 µM (inactive)	16.4 µM (inactive)	10.6 µM (inactive)	19.1 µM (inactive)	35.4 µM (inactive)	20.3 µM (inactive)
Cc1ccc(S(=O)(=O)N2CCC[C@@H]2C(=O)O[C@@H]2CCC3CC=CC32)cc1 (stereo partly specified)	19.9 µM (inactive)	24.8 µM (inactive)	38.5 µM (inactive)	24.8 µM (inactive)	45.6 µM (inactive)	41.6 µM (inactive)	15.3 µM (inactive)	24 µM (inactive)	33.3 µM (inactive)	28.3 µM (inactive)	19.9 µM (inactive)	18.9 µM (inactive)	47.9 µM (inactive)	22.2 µM (inactive)	34.4 µM (inactive)	11.6 µM (inactive)	34.3 µM (inactive)	22.2 µM (inactive)	27.9 µM (inactive)
Cc1ccc(NC(=O)CSc2nc(O)nc3[nH]cnc23)cc1	44.6 µM (inactive)	28.2 µM (inactive)	> 100 µM (inactive)	27.7 µM (inactive)	> 100 µM (inactive)	> 100 µM (inactive)	> 100 µM (inactive)	> 100 µM (inactive)	68.9 µM (inactive)	> 100 µM (inactive)	33.8 µM (inactive)	> 100 µM (inactive)	> 100 µM (inactive)	> 100 µM (inactive)	68.7 µM (inactive)	35.6 µM (inactive)	41.1 µM (inactive)	> 100 µM (inactive)	> 100 µM (inactive)
CCOC(=O)Cc1nc2sc(S(N)(=O)=O)nn2c1Br	23.2 µM (inactive)	26.5 µM (inactive)	27.2 µM (inactive)	< 0.01 µM (active)	33.9 µM (inactive)	26.6 µM (inactive)	22.8 µM (inactive)	19.4 µM (inactive)	> 100 µM (inactive)	32.3 µM (inactive)	27.2 µM (inactive)	19.1 µM (inactive)	33.1 µM (inactive)	> 100 µM (inactive)	87.7 µM (inactive)	40.6 µM (inactive)	15.3 µM (inactive)	29.9 µM (inactive)	16.6 µM (inactive)
O=CC(O)C(O)C1OC(=O)c2cc(O)c(O)c(O)c2C2=C(O)C(O)=C3OC(=O)c4c(c(O)c(O)c5c4C3C2C(=O)O5)-c2c(cc(O)c(O)c2O)C(=O)OCC1O (stereo unspecified)	16.3 µM (inactive)	44.9 µM (inactive)	44.2 µM (inactive)	20.4 µM (inactive)	17.9 µM (inactive)	23.7 µM (inactive)	18 µM (inactive)	15.7 µM (inactive)	67.1 µM (inactive)	10.4 µM (inactive)	21.4 µM (inactive)	35.6 µM (inactive)	44.3 µM (inactive)	25.9 µM (inactive)	57.8 µM (inactive)	24.1 µM (inactive)	19.2 µM (inactive)	49.5 µM (inactive)	29.2 µM (inactive)
CC(NNC(=O)c1cc[n+]([BH2-]C#N)cc1)c1cccc(C(F)(F)F)c1 (stereo unspecified)	> 100 µM (inactive)	> 100 µM (inactive)	> 100 µM (inactive)	> 100 µM (inactive)	> 100 µM (inactive)	> 100 µM (inactive)	> 100 µM (inactive)	82.2 µM (inactive)	64.4 µM (inactive)	> 100 µM (inactive)	> 100 µM (inactive)	4.55 µM (inactive)	> 100 µM (inactive)	26.7 µM (inactive)	> 100 µM (inactive)	52.1 µM (inactive)	88.7 µM (inactive)	68.2 µM (inactive)	73.3 µM (inactive)
CC1OC2(CC(OCc3ccccc3)C1OCc1ccccc1)OCCO2 (stereo unspecified)	61.5 µM (inactive)	12.8 µM (inactive)	61.8 µM (inactive)	34.4 µM (inactive)	88.5 µM (inactive)	35.6 µM (inactive)	49.9 µM (inactive)	20.9 µM (inactive)	17.4 µM (inactive)	63.7 µM (inactive)	82.6 µM (inactive)	31.2 µM (inactive)	> 100 µM (inactive)	> 100 µM (inactive)	44.3 µM (inactive)	21.1 µM (inactive)	44.5 µM (inactive)	34.8 µM (inactive)	56.9 µM (inactive)
C=C1C(=O)OC2/C=C(/C)C(OC(C)=O)CC(O)/C(C)=C\C(OC(=O)/C(C)=C\C)C12 (stereo unspecified)	17.1 µM (inactive)	> 100 µM (inactive)	42.8 µM (inactive)	28.6 µM (inactive)	53.8 µM (inactive)	78 µM (inactive)	43.6 µM (inactive)	66.1 µM (inactive)	> 100 µM (inactive)	> 100 µM (inactive)	> 100 µM (inactive)	10.6 µM (inactive)	43.2 µM (inactive)	> 100 µM (inactive)	> 100 µM (inactive)	26.7 µM (inactive)	> 100 µM (inactive)	> 100 µM (inactive)	> 100 µM (inactive)
